Results from patent publication US11208412B2 (DAEGU-GYEONGBUK MEDICAL INNOVATION FOUNDATION, priority 2017, dated 2021).
Where two headings read alike, the source gives them in different places.

Columns and labels:
Assay in all cases: Kinase selectivity, DiscoverX scanMAX Kinase assay panel (% control)
Type in all cases: binding
[1] = molecular target: T1, kinases of the scanMAX Kinase assay panel (Homo sapiens, UniProt O15264); settings: p38-delta; 1 uM
T1 construct: purchased DiscoverX Co. (contract measurement) scanMAX Kinase assay panel
T1 sequence (O15264 1-365): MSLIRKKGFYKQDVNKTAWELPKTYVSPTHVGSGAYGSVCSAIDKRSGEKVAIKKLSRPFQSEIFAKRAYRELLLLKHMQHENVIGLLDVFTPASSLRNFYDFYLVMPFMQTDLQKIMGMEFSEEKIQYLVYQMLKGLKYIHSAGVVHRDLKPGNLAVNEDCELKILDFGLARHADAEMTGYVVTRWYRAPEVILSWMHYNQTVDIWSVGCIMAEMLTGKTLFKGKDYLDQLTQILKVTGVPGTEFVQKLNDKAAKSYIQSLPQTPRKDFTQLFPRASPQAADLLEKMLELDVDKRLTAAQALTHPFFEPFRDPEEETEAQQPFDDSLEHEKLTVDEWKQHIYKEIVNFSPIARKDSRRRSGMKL
In short: (§1)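 Compounds tested at 1 uM against the scanMAX kinase panel. Signal expressed as % control = (compound − positive control)/(DMSO negative control − positive control) × 100, where positive control = 0% and DMSO = 100%; below 35% counted as activity on that kinase.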

[2] = molecular target: T2, kinases of the scanMAX Kinase assay panel (Homo sapiens, UniProt Q15569); settings: kinase TESK1; 1 uM in DMSO
T2 construct: purchased DiscoverX Co. (contract measurement) scanMAX Kinase assay panel
T2 sequence (Q15569 whole entry): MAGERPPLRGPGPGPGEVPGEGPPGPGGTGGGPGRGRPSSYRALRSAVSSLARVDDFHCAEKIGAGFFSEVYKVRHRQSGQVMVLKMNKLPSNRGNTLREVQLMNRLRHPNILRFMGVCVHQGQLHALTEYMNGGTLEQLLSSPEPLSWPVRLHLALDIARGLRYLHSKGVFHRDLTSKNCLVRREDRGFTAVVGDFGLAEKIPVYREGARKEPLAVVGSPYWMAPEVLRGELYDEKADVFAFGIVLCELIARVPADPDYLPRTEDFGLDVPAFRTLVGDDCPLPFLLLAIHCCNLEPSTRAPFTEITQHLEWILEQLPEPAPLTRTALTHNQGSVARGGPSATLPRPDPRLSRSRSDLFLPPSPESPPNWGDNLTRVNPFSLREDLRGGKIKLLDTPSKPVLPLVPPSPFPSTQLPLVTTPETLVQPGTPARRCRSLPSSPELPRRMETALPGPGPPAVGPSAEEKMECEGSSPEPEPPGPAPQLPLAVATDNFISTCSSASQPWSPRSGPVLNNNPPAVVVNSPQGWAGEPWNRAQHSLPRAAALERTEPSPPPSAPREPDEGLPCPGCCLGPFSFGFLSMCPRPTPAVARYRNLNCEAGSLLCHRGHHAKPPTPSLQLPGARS
In short: as §1

[3] = molecular target: T3, kinases of the scanMAX Kinase assay panel (Homo sapiens, UniProt P27037); settings: ACVR2A; 1 uM
T3 construct: purchased DiscoverX Co. (contract measurement) scanMAX Kinase assay panel
T3 sequence (P27037 20-513): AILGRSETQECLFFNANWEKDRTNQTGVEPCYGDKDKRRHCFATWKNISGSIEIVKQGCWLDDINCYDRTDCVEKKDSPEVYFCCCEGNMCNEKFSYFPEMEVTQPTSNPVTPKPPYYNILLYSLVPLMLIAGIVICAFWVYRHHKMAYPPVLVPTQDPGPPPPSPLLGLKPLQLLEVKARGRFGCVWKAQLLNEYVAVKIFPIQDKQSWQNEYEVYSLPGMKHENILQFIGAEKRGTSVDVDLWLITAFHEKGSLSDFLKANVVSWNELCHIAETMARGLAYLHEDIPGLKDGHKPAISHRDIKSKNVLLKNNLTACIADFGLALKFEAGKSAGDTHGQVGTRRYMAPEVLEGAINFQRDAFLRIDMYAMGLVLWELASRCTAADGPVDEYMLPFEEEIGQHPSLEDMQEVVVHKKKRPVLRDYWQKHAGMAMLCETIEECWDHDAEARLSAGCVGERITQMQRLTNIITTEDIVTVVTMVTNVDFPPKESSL
In short: as §1

[4] = molecular target: T4, kinases of the scanMAX Kinase assay panel (Homo sapiens, UniProt Q9UQB9); settings: AURKC; 1 uM
T4 construct: purchased DiscoverX Co. (contract measurement) scanMAX Kinase assay panel
T4 sequence (Q9UQB9 1-309): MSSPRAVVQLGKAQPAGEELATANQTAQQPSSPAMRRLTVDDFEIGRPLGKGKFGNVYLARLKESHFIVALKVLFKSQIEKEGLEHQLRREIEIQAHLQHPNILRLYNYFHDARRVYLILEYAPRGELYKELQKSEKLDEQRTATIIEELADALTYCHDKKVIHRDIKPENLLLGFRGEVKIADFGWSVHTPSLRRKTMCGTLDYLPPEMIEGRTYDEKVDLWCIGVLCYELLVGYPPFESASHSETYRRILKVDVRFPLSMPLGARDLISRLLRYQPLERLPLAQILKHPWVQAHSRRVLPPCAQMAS
In short: as §1

[5] = molecular target: T5, kinases of the scanMAX Kinase assay panel (Homo sapiens, UniProt Q13188); settings: MST2; 1 uM
T5 construct: purchased DiscoverX Co. (contract measurement) scanMAX Kinase assay panel
T5 sequence (Q13188 1-491): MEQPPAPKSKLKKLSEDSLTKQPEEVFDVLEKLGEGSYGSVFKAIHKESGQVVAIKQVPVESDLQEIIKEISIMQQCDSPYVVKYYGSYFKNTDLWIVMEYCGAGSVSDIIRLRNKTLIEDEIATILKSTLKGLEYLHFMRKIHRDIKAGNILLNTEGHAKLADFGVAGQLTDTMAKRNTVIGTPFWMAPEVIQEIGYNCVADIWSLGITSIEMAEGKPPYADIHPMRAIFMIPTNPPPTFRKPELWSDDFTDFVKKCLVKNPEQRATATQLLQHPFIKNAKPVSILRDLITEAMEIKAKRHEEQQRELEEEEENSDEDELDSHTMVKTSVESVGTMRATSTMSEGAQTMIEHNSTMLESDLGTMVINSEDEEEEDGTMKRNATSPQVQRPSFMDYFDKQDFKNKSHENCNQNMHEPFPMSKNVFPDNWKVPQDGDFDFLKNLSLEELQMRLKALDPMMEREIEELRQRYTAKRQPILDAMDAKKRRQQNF
In short: as §1

[6] = molecular target: T6, kinases of the scanMAX Kinase assay panel (Homo sapiens, UniProt Q8TBX8); settings: PIP5K2C; 1 uM
T6 construct: purchased DiscoverX Co. (contract measurement) scanMAX Kinase assay panel
T6 sequence (Q8TBX8 1-421): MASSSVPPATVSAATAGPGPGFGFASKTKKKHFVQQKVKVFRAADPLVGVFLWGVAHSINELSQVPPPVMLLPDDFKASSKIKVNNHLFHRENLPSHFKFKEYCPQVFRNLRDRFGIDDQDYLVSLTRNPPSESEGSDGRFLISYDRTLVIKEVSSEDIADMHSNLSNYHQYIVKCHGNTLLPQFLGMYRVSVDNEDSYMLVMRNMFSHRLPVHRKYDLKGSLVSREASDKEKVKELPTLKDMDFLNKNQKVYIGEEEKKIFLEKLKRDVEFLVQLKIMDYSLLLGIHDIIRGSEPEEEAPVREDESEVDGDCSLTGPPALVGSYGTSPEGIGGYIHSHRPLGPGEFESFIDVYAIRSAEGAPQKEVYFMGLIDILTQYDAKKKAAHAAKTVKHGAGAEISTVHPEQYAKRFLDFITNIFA
In short: as §1

[7] = molecular target: T7, kinases of the scanMAX Kinase assay panel (Homo sapiens, UniProt P42336, I800L); settings: PIK3CA(I800L); 1 uM
T7 construct: purchased DiscoverX Co. (contract measurement) scanMAX Kinase assay panel
T7 sequence (P42336 whole entry I800L): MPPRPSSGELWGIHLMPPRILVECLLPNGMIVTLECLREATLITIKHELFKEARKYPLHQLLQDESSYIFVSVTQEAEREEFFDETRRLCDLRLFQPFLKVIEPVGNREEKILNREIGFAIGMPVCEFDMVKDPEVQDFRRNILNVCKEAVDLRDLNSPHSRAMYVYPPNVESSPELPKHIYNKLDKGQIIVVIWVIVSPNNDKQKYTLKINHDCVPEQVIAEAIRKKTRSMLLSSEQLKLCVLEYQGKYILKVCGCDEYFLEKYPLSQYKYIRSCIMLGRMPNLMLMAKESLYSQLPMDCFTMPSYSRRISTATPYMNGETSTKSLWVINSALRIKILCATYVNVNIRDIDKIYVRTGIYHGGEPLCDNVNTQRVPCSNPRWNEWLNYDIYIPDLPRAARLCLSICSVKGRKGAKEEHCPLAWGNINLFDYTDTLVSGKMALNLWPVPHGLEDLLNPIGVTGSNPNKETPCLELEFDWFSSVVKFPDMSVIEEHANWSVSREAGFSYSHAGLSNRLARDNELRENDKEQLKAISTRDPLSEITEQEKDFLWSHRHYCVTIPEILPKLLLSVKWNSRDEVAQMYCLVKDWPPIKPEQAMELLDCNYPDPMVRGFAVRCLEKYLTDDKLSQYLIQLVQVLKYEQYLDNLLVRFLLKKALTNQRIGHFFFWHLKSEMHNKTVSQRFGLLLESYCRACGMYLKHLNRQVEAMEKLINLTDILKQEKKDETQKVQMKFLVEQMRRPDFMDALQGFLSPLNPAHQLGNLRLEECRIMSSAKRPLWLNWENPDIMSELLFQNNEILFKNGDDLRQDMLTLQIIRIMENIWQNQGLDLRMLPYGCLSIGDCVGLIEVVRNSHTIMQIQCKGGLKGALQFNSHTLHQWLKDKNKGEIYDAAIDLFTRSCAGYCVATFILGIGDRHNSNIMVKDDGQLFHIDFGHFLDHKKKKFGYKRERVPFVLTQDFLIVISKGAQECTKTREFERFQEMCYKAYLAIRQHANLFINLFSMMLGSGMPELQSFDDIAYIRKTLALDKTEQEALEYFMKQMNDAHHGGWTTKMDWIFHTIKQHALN
In short: as §1

[8] = molecular target: T8, kinases of the scanMAX Kinase assay panel (Homo sapiens, UniProt Q02750); settings: MEK1; 1 uM
T8 construct: purchased DiscoverX Co. (contract measurement) scanMAX Kinase assay panel
T8 sequence (Q02750 whole entry): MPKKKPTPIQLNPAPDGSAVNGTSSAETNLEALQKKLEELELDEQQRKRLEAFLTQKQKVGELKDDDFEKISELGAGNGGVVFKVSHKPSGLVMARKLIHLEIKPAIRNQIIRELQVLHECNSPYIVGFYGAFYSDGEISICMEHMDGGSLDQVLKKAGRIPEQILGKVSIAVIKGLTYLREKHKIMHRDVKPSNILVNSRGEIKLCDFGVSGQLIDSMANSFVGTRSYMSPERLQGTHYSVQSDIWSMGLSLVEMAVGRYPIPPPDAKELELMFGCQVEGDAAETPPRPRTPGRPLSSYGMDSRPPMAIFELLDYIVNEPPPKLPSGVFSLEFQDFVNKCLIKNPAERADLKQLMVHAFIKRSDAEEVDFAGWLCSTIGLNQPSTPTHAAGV
In short: as §1

[9] = molecular target: T9, kinases of the scanMAX Kinase assay panel (Homo sapiens, UniProt Q15349); settings: 1 uM in DMSO
T9 construct: purchased DiscoverX Co. (contract measurement) scanMAX Kinase assay panel
T9 sequence (Q15349 whole entry): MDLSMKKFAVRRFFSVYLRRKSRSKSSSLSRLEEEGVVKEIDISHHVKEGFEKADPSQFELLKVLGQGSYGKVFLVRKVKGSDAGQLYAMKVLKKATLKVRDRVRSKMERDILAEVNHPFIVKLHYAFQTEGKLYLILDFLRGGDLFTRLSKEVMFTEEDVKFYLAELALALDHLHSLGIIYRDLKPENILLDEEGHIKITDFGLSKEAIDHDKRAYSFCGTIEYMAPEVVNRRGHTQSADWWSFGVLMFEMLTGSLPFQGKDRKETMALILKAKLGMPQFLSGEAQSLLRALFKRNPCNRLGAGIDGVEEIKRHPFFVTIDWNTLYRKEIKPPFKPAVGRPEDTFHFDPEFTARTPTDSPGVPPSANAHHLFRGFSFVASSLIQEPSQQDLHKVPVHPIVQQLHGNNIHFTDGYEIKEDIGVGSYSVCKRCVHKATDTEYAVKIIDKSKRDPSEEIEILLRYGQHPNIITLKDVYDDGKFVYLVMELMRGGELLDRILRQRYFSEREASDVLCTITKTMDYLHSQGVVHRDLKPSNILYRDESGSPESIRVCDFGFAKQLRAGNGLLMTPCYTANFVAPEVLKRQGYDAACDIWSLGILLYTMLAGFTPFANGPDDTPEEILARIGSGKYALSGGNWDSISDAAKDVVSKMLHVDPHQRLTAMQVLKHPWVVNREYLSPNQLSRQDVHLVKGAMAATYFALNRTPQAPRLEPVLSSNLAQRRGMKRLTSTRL
In short: as §1

[10] = molecular target: T10, kinases of the scanMAX Kinase assay panel (Homo sapiens, UniProt P06239); settings: LCK; 1 uM
T10 construct: purchased DiscoverX Co. (contract measurement) scanMAX Kinase assay panel
In short: as §1

[11] = molecular target: T11, kinases of the scanMAX Kinase assay panel (Homo sapiens, UniProt Q13177); settings: PAK2; 1 uM
T11 construct: purchased DiscoverX Co. (contract measurement) scanMAX Kinase assay panel
T11 sequence (Q13177 whole entry): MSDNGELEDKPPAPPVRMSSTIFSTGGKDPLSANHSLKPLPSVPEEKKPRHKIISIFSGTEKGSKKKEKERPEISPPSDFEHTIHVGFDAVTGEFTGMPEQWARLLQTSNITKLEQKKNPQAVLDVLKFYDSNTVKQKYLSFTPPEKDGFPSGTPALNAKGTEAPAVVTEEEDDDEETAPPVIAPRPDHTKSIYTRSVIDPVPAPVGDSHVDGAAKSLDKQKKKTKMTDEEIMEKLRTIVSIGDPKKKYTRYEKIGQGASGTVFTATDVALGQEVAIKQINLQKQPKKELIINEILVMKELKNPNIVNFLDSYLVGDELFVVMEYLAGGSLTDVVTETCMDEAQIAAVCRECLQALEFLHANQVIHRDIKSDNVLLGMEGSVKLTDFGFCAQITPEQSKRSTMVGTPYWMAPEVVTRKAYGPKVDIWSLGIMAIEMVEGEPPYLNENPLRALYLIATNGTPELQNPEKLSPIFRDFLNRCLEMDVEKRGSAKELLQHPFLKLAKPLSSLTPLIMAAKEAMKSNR
In short: as §1

[12] = molecular target: T12, kinases of the scanMAX Kinase assay panel (Homo sapiens, UniProt Q16659); settings: ERK3; 1 uM
T12 construct: purchased DiscoverX Co. (contract measurement) scanMAX Kinase assay panel
T12 sequence (Q16659 whole entry): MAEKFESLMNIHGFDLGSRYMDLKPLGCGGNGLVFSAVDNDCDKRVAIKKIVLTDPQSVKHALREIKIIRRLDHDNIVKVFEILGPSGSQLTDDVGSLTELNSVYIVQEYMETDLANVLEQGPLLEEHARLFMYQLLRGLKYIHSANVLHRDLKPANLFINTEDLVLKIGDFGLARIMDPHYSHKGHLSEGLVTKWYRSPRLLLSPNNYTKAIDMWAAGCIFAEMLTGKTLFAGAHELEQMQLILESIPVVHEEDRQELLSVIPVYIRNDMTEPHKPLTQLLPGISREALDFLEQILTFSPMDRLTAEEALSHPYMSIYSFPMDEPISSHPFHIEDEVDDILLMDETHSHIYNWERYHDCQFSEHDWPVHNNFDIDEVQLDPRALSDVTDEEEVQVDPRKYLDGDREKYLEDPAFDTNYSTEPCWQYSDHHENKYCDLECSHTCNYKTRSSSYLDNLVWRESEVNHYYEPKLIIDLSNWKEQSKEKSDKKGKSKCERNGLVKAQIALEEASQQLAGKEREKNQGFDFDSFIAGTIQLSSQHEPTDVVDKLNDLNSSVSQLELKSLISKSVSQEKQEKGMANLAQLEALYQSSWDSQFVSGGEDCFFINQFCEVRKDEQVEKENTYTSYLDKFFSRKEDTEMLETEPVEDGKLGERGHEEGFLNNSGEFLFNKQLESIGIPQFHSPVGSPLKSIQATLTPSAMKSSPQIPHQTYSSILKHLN
In short: as §1

[13] = kinase RSK3(Kin.Dom.1-N-terminal), read-out: % control, RSK3(Kin.Dom.1-N-terminal)
[14] = kinase RSK3(Kin.Dom.2-C-terminal), read-out: % control, RSK3(Kin.Dom.2-C-terminal)

Row | SMILES | remaining binding at 1 µM [1] | remaining binding at 1 µM [2] | remaining binding at 1 µM [3] | remaining binding at 1 µM [4] | remaining binding at 1 µM [5] | remaining binding at 1 µM [6] | remaining binding at 1 µM [7] | remaining binding at 1 µM [8] | remaining binding at 1 µM [9, 13] | remaining binding at 1 µM [9, 14] | remaining binding at 1 µM [10] | remaining binding at 1 µM [11] | remaining binding at 1 µM [12]
1 | CCNc1nc(Nc2ccc(C(=O)N3CCC(N4CCOCC4)CC3)cc2OC)nc2[nH]cc(C(F)(F)F)c12 [Example 104, (4-((4-(ethylamino)-5-(trifluoromethyl)-7H-pyrrolo[2,3-d]pyrimidine-2-yl)amino)-3-methoxyphenyl)(4-morpholinopiperidine-1-yl)methanone] | 95% | 100% | 100% | 100% | 71% | 77% | 72% | 86% | 100% | 66% | 100% | 71% | 95%
2 | CNc1nc(Nc2ccc(C(=O)N3CCOCC3)cc2OC)nc2[nH]cc(C#N)c12 [Example 1, 2-((2-methoxy-4-(morpholine-4-carbonyl)phenyl)amino)-4-(methylamino)-7H-pyrrolo[2,3-d]pyrimidine-5-carbonitrile] | 100% | 100% | 100% | 100% | 92% | 4.5% | 100% | 89% | 90% | 23% | 100% | 95% | 89%
3 | CC1(Nc2nc(Nc3cnn([C@H]4CCN(C5COC5)C[C@@H]4F)c3Cl)nc3[nH]cc(C#N)c23)CC1 [Example 52, 2-((5-chloro-1-((3S,4S)-3-fluoro-1-(oxetane-3-yl)piperidine-4-yl)-1H-pyrazole-4-yl)amino)((1-methylcyclopropyl)amino)-7H-pyrrolo[2,3-d]pyrimidine-5-carbonitrile] | 76% | 65% | 98% | 7.1% | 15% | 0% | 0.1% | 0.1% | 4.3% | 28% | 19% | 45% | 54%
